Columns and labels:
[1] = tested on: A549; assay: Cytotoxicity against human A549 cells after 48 hrs by sulforhodamine B assay; type: cell-based; conditions: a549, 48 h
[2] = tested on: HOP-92; assay: Cytotoxicity against human HOP92 cells after 48 hrs by sulforhodamine B assay; type: cell-based; conditions: hop-92, 48 h
[3] = tested on: MOLT-4; assay: Cytotoxicity against human MOLT4 cells after 48 hrs by sulforhodamine B assay; type: cell-based; conditions: molt-4, 48 h
[4] = tested on: NCI/ADR-RES; assay: Cytotoxicity against human NCI/ADR-RES cells after 48 hrs by sulforhodamine B assay; type: cell-based
[5] = tested on: M14; assay: Cytotoxicity against human M14 cells after 48 hrs by sulforhodamine B assay; type: cell-based; conditions: m14, 48 h
[6] = tested on: NCI-H460; assay: Growth inhibition of human NCI-H460 cells after 48 hrs by sulforhodamine B assay; type: functional; conditions: NCI-H460, 48 h
[7] = biological target: Casein kinase I isoform gamma-3 (Homo sapiens) (UniProt Q9Y6M4); assay: Binding affinity to human CSNK1G3 at 10 uM incubated for 1 hr by kinase binding assay relative to untreated control
[8] = biological target: T1, Mitogen-activated protein kinase 12 (Homo sapiens) (UniProt P53778); assay: Binding affinity to human p38-gamma at 10 uM incubated for 1 hr by kinase binding assay relative to untreated control
T1 sequence (whole entry): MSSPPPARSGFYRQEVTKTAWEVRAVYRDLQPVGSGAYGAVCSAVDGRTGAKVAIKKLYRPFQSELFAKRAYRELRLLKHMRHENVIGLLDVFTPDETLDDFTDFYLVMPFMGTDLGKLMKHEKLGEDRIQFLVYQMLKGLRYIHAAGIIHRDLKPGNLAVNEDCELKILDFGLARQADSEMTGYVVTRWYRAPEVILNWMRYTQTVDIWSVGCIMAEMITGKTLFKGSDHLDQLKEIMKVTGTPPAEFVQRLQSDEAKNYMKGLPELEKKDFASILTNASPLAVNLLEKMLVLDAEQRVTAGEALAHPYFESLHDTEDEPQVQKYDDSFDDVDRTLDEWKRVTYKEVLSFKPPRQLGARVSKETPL

[9] = tested on: HCT-116; assay: Growth inhibition of human HCT116 cells after 48 hrs by sulforhodamine B assay; type: functional; conditions: HCT-116, 48 h
[10] = tested on: DU-145; assay: Growth inhibition of human DU145 cells after 48 hrs by sulforhodamine B assay; type: functional; conditions: DU-145, 48 h
[11] = tested on: Platelet-derived growth factor receptor alpha (Homo sapiens), P16234 [V561D]; assay: Inhibition of human PDGFRA V561D using gamma-33P-ATP as substrate assessed as enzyme functional activity at 1 uM by scintillation counting relative to untreated control; design: scale not given: the % may be the effect or the level left
[12] = tested on: A498; assay: Cytotoxicity against human A498 cells after 48 hrs by sulforhodamine B assay; type: cell-based; conditions: a498, 48 h
[13] = tested on: HL-60(TB); assay: Cytotoxicity against human HL-60(TB) cells after 48 hrs by sulforhodamine B assay; type: cell-based
[14] = tested on: Mast/stem cell growth factor receptor Kit (Homo sapiens), P10721 [D816H]; assay: Binding affinity to human KIT D816H mutant at 10 uM incubated for 1 hr by kinase binding assay relative to untreated control
[15] = tested on: OVCAR-8; assay: Cytotoxicity against human OVCAR8 cells after 48 hrs by sulforhodamine B assay; type: cell-based; conditions: ovcar-8, 48 h
[16] = biological target: Cyclin-dependent kinase 19 (Homo sapiens) (UniProt Q9BWU1); assay: Binding affinity to human CDK11 at 10 uM incubated for 1 hr by kinase binding assay relative to untreated control
[17] = tested on: Receptor-type tyrosine-protein kinase FLT3 (Homo sapiens), P36888 [UNDEFINED MUTATION]; assay: Binding affinity to human FLT3 ITD mutant at 10 uM incubated for 1 hr by kinase binding assay relative to untreated control
[18] = biological target: Macrophage colony-stimulating factor 1 receptor (Homo sapiens) (UniProt P07333); assay: Binding affinity to human CSF1R at 10 uM incubated for 1 hr by kinase binding assay relative to untreated control
[19] = tested on: Hs-578T; assay: Cytotoxicity against human Hs578T cells after 48 hrs by sulforhodamine B assay; type: cell-based
[20] = tested on: HCT-15; assay: Growth inhibition of human HCT15 cells after 48 hrs by sulforhodamine B assay; type: functional; conditions: HCT-15, 48 h
[21] = tested on: NCI/ADR-RES; assay: Growth inhibition of human NCI/ADR-RES cells after 48 hrs by sulforhodamine B assay; type: functional
[22] = tested on: U-251; assay: Growth inhibition of human U251 cells after 48 hrs by sulforhodamine B assay; type: functional; conditions: U-251, 48 h
[23] = biological target: Casein kinase I isoform delta (Homo sapiens) (UniProt P48730); assay: Inhibition of human CSNK1D using gamma-33P-ATP as substrate assessed as enzyme functional activity at 1 uM by scintillation counting relative to untreated control; design: scale not given: the % may be the effect or the level left
[24] = tested on: PC-3; assay: Cytotoxicity against human PC3 cells after 48 hrs by sulforhodamine B assay; type: cell-based; conditions: pc-3, 48 h
[25] = tested on: SF-539; assay: Cytotoxicity against human SF539 cells after 48 hrs by sulforhodamine B assay; type: cell-based; conditions: sf-539, 48 h
[26] = tested on: RXF 393; assay: Cytotoxicity against human RXF393 cells after 48 hrs by sulforhodamine B assay; type: cell-based; conditions: rxf 393, 48 h
[27] = tested on: MDA-MB-435; assay: Growth inhibition of human MDA-MB-435 cells after 48 hrs by sulforhodamine B assay; type: functional; conditions: MDA-MB-435, 48 h
[28] = tested on: Malme-3M; assay: Cytotoxicity against human MALME-3M cells after 48 hrs by sulforhodamine B assay; type: cell-based

Sequence of Cyclin-dependent kinase 19 (Homo sapiens) (Q9BWU1 whole entry): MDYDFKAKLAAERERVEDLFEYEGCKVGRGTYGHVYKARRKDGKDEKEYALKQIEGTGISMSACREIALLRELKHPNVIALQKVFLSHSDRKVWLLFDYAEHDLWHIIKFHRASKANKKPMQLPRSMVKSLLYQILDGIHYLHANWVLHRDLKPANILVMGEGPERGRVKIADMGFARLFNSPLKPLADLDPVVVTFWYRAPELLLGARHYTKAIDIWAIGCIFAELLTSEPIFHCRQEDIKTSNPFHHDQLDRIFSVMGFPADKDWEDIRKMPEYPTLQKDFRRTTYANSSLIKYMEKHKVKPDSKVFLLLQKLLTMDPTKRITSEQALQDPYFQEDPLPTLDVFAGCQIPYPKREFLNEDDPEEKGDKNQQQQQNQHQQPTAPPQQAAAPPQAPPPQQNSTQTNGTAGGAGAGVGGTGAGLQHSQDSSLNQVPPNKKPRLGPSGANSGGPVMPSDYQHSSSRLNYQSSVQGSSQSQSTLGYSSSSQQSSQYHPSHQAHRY
Sequence of Receptor-type tyrosine-protein kinase FLT3 (Homo sapiens), P36888 [UNDEFINED MUTATION] (P36888 whole entry, looked up, change not shown): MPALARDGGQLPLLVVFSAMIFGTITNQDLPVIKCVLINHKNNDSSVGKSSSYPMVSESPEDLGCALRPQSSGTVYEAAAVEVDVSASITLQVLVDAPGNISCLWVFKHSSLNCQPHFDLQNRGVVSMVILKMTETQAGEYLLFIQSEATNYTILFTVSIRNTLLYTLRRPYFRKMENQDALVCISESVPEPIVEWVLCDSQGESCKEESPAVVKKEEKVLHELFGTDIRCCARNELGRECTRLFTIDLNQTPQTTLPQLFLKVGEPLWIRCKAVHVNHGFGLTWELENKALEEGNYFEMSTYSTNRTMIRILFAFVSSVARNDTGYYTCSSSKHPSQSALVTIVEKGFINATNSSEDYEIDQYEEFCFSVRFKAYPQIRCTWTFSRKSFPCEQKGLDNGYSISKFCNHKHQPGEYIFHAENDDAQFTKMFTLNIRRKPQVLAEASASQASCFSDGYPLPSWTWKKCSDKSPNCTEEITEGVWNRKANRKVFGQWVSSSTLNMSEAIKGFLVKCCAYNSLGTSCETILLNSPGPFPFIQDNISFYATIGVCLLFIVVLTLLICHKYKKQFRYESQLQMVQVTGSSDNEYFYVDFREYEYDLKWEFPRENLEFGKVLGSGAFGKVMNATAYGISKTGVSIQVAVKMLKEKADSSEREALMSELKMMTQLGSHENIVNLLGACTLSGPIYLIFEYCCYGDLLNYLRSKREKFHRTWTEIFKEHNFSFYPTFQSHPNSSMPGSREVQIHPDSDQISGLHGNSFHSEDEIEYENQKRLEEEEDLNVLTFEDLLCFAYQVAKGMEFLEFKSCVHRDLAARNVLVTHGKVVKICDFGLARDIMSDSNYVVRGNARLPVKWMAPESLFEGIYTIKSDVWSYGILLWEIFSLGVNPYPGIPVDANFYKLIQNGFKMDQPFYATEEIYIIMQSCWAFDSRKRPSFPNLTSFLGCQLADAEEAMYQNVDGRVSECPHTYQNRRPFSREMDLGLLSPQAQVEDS
Sequence of Macrophage colony-stimulating factor 1 receptor (Homo sapiens) (P07333 whole entry): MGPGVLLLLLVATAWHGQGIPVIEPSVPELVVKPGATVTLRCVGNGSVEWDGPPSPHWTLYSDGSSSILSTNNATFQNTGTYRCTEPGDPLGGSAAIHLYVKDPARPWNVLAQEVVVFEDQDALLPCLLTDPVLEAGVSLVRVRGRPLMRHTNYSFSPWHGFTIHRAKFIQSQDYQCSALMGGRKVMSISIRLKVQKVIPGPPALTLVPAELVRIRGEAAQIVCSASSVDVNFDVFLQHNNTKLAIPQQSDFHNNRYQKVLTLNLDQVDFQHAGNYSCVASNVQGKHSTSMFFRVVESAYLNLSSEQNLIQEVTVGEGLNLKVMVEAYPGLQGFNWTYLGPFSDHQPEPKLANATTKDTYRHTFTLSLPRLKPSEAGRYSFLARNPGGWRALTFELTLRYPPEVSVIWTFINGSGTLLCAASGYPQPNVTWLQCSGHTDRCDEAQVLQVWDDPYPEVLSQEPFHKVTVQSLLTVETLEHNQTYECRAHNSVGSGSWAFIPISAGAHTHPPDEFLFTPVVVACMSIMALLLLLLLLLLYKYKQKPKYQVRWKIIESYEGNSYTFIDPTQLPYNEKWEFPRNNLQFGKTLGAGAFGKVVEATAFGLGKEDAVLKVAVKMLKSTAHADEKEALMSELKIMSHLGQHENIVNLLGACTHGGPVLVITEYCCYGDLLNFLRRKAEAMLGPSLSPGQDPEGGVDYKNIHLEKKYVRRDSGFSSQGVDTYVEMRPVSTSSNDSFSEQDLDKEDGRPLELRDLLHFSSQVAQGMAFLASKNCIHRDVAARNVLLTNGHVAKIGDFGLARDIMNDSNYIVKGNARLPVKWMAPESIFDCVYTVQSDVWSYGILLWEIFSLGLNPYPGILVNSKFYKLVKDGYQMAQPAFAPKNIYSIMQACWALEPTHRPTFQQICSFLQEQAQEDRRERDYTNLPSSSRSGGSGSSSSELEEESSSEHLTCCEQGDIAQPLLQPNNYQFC
Sequence of Casein kinase I isoform delta (Homo sapiens) (P48730 whole entry, looked up, canonical isoform): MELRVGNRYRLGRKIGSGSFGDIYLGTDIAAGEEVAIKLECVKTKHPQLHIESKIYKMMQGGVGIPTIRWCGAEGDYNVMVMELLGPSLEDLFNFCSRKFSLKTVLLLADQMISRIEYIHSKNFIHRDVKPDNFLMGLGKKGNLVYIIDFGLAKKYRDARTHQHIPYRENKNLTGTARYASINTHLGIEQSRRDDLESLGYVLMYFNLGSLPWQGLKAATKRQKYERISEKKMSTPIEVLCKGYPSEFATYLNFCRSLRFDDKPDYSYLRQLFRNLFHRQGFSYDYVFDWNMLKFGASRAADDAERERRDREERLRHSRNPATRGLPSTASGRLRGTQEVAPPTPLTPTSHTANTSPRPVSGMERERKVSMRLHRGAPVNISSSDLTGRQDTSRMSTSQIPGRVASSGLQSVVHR
Sequence of Platelet-derived growth factor receptor alpha (Homo sapiens), P16234 [V561D] (P16234 whole entry V561D): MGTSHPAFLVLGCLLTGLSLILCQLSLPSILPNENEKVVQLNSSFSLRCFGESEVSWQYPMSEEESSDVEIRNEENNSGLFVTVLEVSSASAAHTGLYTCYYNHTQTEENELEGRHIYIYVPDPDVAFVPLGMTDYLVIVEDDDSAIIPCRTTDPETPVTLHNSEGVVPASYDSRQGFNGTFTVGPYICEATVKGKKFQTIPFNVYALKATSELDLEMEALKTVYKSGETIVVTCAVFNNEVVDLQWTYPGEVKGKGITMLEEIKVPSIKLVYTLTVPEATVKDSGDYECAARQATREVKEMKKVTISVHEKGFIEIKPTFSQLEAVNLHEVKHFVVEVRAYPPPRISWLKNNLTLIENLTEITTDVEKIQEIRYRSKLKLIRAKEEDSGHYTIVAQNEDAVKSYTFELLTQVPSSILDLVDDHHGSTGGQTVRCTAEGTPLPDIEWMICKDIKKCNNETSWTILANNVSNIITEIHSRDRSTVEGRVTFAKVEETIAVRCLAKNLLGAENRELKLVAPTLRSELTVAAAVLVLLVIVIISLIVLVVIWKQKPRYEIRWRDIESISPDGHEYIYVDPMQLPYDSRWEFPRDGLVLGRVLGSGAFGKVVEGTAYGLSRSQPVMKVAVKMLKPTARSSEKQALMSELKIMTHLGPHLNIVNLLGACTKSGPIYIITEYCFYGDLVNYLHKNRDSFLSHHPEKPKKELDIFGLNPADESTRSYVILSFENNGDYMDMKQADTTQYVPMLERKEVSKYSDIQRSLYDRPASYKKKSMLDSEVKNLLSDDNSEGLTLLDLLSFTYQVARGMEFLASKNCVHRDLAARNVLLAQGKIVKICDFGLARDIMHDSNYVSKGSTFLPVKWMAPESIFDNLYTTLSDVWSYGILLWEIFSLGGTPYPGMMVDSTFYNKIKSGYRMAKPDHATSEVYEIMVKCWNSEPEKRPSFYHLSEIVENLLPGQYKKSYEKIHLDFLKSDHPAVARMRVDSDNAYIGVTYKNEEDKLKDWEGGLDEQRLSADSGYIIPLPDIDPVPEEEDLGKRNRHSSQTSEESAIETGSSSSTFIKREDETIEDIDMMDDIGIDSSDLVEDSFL
Sequence of Casein kinase I isoform gamma-3 (Homo sapiens) (Q9Y6M4 whole entry, looked up, canonical isoform): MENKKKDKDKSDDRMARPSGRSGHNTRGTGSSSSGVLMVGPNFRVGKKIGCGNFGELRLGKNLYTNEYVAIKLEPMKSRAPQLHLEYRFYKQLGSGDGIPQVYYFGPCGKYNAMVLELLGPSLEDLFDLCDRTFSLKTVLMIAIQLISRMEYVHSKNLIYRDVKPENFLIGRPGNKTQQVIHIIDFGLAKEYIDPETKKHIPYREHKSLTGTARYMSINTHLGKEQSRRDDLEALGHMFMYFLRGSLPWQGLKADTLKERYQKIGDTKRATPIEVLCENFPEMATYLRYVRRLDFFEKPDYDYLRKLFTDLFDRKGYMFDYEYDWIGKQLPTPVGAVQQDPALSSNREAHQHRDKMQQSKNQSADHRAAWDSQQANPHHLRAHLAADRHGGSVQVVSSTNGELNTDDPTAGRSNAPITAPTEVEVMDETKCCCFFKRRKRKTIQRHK

SMILES	LC50 [1]	LC50 [2]	LC50 [3]	LC50 [4]	LC50 [5]	TGI [6]	Activity [7]	Activity [8]	TGI [9]	TGI [10]	Activity [11]	LC50 [12]	LC50 [13]	Activity [14]	LC50 [15]	Activity [16]	Activity [17]	Activity [18]	LC50 [19]	TGI [20]	other results
c1ccc(Cc2cnc(N3CCN(c4ncnc5ccccc45)CC3)nc2)cc1	> 100 µM	62 µM	> 100 µM	66.4 µM	51.6 µM	23.7 µM	> 50%	> 50%	13.2 µM	30.7 µM	20%	50.1 µM	> 100 µM	30%	71.3 µM	0%	49%	31%	> 100 µM	63.2 µM	TGI [21]: 17.6 µM; TGI [22]: 24.6 µM; Activity [23]: 90%; LC50 [24]: > 100 µM; LC50 [25]: 56.1 µM; LC50 [26]: > 100 µM; TGI [27]: 27.5 µM; LC50 [28]: 89.2 µM
CCc1cnc(N2CCN(C(=O)c3ccc(CNc4ncnc5ccccc45)cc3)CC2)nc1	> 100 µM	> 100 µM	> 100 µM	> 100 µM	93.7 µM	30.7 µM	24%	> 50%	25 µM	> 100 µM	100%	> 100 µM	> 100 µM	> 50%	> 100 µM	47%	> 50%	> 50%	> 100 µM	> 100 µM	TGI [21]: 21.5 µM; TGI [22]: > 100 µM; Activity [23]: 87%; LC50 [24]: > 100 µM; LC50 [25]: > 100 µM; LC50 [26]: > 100 µM; TGI [27]: > 100 µM; LC50 [28]: > 100 µM
O=C(c1cccc(Nc2ncnc3ccccc23)c1)N1CCN(c2ncc(Cc3ccccc3)cn2)CC1	8.13 µM	> 100 µM	> 100 µM	> 100 µM	4.68 µM	4.27 µM	> 50%	25%	3.55 µM	6.46 µM	100%	> 100 µM	6.76 µM	> 50%	> 100 µM	> 50%	> 50%	> 50%	> 100 µM	3.55 µM	TGI [21]: 8.51 µM; TGI [22]: 6.61 µM; Activity [23]: 74%; LC50 [24]: > 100 µM; LC50 [25]: > 100 µM; LC50 [26]: > 100 µM; TGI [27]: 2.14 µM; LC50 [28]: 5.25 µM

— ChEMBL document CHEMBL1782045, “Discovery, synthesis, and investigation of the antitumor activity of novel piperazinylpyrimidine derivatives” (Eur J Med Chem, 2011)
